Results reported in patent US9770526B2, “Absorbent article” (priority 2011, dated 2017).
Like-named read-outs stand apart in the source and are kept apart here.

Tests used:
[1] = Rewetting rate of sanitary napkin; settings: Example 2: agent coated on top sheet only, about 5 g/m^2; horse EDTA blood
Procedure: (obtained by adding ethylenediaminetetraacetic acid (hereunder, “EDTA”) to horse blood to prevent coagulation) was dropped through the hole using a pipette (once), and after 1 minute, 3 g of horse EDTA blood at 37±1° C. was again added dropwise through the acrylic board hole with a pipette (twice).
After the second dropping of blood, the acrylic board was immediately removed and 10 sheets of filter paper (50 mm×35 mm) were placed on the location where the blood had been dropped, and then a weight was placed thereover to a pressure of 30 g/cm^2. After 1 minute, the filter paper was removed and the “rewetting rate” was calculated by the following formula. Rewetting rate (%)=100×(filter paper mass after test−initial filter paper mass)/6

[2] = Absorbent body migration rate; settings: Example 2: agent coated on top sheet only, about 5 g/m^2; horse EDTA blood
Procedure: In addition to the rewetting rate evaluation, the “absorbent body migration rate” was also measured as the time until migration of blood from the top sheet to the absorbent body after the second dropping of blood. The absorbent body migration rate is the time from […].

[3] = Water solubility in 100 g of water at 25° C.
Description: As used herein, the term “solubility” in regard to water solubility includes cases where the sample completely dissolves in deionized water to form a homogeneous mixture, and cases where the sample is completely emulsified. As used herein, “completely” means that no mass of the sample remains in the deionized water.

[4] = Surface tension of blood containing blood modifying agent (pendant drop method); set-up: species or system sheep; settings: Amount 0.10 mass %; measuring temperature 35° C.
Procedure: The surface tension of blood containing a blood modifying agent was measured by the pendant drop method, using a Drop Master500 contact angle meter by Kyowa Interface Science Co., Ltd. The surface tension was measured after adding a prescribed amount of blood modifying agent to sheep defibrinated blood, and thoroughly shaking. The measurement was accomplished automatically with a device, and the surface tension γ was determined by the following formula (see FIG. 8). γ=g×ρ×(de)^2×1/H The density ρ was measured at the temperatures listed in Table 6, according to JIS K 2249-1995, “Density test methods and density/mass/volume conversion tables”, “5. Vibrating density test method”. The measurement was accomplished using a DA-505 by Kyoto Electronics Co., Ltd.

Compound: CCCCCCCCCCCCCC(=O)OCCCCCCCCCCCC [No. 2-18, Ester of tetradecanoic acid (C14) and dodecyl alcohol (C12)]
- Rewetting rate (%) [1]: 1.8%
- Absorbent body migration rate [2]: 4 s

Compound: Polypropylene glycol [No. 2-19]
- Water solubility [3]: <0.05 g

Compound: CCCCCCCC(=O)OCC(COC(=O)CCCCCCC)OC(=O)CCCCCCC [No. 2-8, Glycerin and fatty acid triester with octanoic acid (C8) as the entire fatty acid portion]
- Rewetting rate (%) [1]: 0.3%
- Water solubility ([3]; in 100 g of water at 25° C., 24 hours, visual): <0.05 g
- Absorbent body migration rate [2]: 3 s

Compound: Polypropylene glycol [No. 2-20]
- Water solubility [3]: <0.05 g

Compound: Glycerin and fatty acid triester with 2-ethylhexanoic acid (CO as the entire fatty acid portion [No. 2-9]
- Rewetting rate (%) [1]: 2.0%
- Absorbent body migration rate [2]: 3 s

Compound: Polypropylene glycol [No. 2-35]
- Water solubility (g) [3]: 0.05< g

Compound: Polypropylene glycol [No. 2-22]
- Water solubility [3]: <0.05 g

Compound: CCCCC(CC)C(=O)OCC(C)(C)COC(=O)C(CC)CCCC (stereo not drawn) [No. 2-15, Neopentylglycol di-2-ethylhexanoate]
- Rewetting rate (%) [1]: 2.0%
- Water solubility [3]: <0.05 g
- Absorbent body migration rate [2]: 5 s

Compound: Polyoxybutylenepolyoxypropylene glycol [No. 2-24]
- Water solubility [3]: <0.05 g

Compound: CCCCCCCCOC(=O)CCCCC(=O)OCCCCCCCC [No. 2-16, Dioctyl adipate]
- Rewetting rate (%) [1]: 1.7%
- Absorbent body migration rate [2]: 6 s

Compound: Polypropylene glycol [No. 2-21]
- Water solubility [3]: <0.05 g

Compound: Isopropyl citrate [No. 2-34]
- Rewetting rate (%) [1]: 12.2%
- Absorbent body migration rate [2]: 5 s

Compound: Glycerin and fatty acid diester with octanoic acid as the fatty acid [No. 2-12]
- Rewetting rate (%) [1]: 4.2%
- Absorbent body migration rate [2]: 9 s

Compound: CCCCCCCCCCCCOC(=O)CCCCCCCCCCC [No. 2-17, Ester of dodecanoic acid (C12) and dodecyl alcohol (C12)]
- Rewetting rate (%) [1]: 1.8%
- Absorbent body migration rate [2]: 5 s
- Surface tension (mN/m) [4]: 58.8 mN/m

Compound: Polybutylene glycol [No. 2-23]
- Water solubility [3]: <0.05 g

Compound: CCCCCCCCCCCC(=O)OCC(O)CO (stereo not drawn) [No. 2-31, lauric acid monoglyceride]
- Rewetting rate (%) [1]: 6.2%
